The source of these data is publication PMC4327905 (Chemico-biological interactions, 2015).

Where a name gives a salt, the structure may show the parent alone.

The target of one assay is T1, transthyretin (Homo sapiens, UniProt P02766). Briefly: ANS fluorescence displacement. It is filed as binding.
For the molecule `O=S(=O)(O)Oc1ccc(-c2ccc(Cl)cc2)c(Cl)c1` [4-PCB 8 sulfate, 2,4′-dichloro-4-sulfooxy-biphenyl], the affinity, expressed as Kd, was 4.3 nM.

Another assay concerns the target T1, transthyretin. Briefly: acid-induced amyloid fibril formation, turbidity at […] nm, […] compound and […] TTR. It is filed as biochemical.
For `Oc1cccc(-c2ccc(Cl)cc2)c1` [3′-OHPCB 3, 4′-chloro-biphenyl-3-ol], the “Fibril Formation (%)” value was 52.3 % fibril formation.

For the molecule `O=S(=O)(O)Oc1cccc(-c2ccc(Cl)cc2)c1` [3′-PCB 3 sulfate, 4-chloro-3′-sulfooxy-biphenyl], the “Fibril Formation (%)” value was determined as 30.7 % fibril formation.

With `Oc1ccc(-c2cccc(Cl)c2)cc1Cl` [4-OHPCB 11, 3,3′-dichloro-biphenyl-4-ol], the “Fibril Formation (%)” value came to 7.5 % fibril formation.

Take `O=S(=O)(O)Oc1ccc(-c2cccc(Cl)c2)cc1Cl` [4-PCB 11 sulfate, 3,3′-dichloro-4-sulfooxy-biphenyl]: the “Fibril Formation (%)” value was found to be 8.3 % fibril formation.

In the case of `O=S(=O)(O)Oc1ccc(-c2ccc(Cl)c(Cl)c2)c(Cl)c1` [4-PCB 33 sulfate, 2,3′,4′-trichloro-4-sulfooxy-biphenyl], the “Fibril Formation (%)” value was found to be 12.7 % fibril formation.

Consider `Oc1c(Cl)cc(-c2ccc(Cl)c(Cl)c2)cc1Cl` [4′-OHPCB 79, 3,3′,4′,5-tetrachloro-biphenyl-4-ol, reference compound], for which the “Fibril Formation (%)” value is reported as 32.2 % fibril formation.

As to `O=S(=O)(O)Oc1ccc(-c2ccc(Cl)cc2)cc1` [4′-PCB 3 sulfate, 4-chloro-4′-sulfooxy-biphenyl], the “Fibril Formation (%)” value is on record as 37.2 % fibril formation.

As to `O=S(=O)(O)Oc1ccc(-c2cc(Cl)ccc2Cl)cc1Cl` [4′-PCB 26 sulfate, 2,3′,5-trichloro-4′-sulfooxy-biphenyl], the “Fibril Formation (%)” value is 10.5 % fibril formation.

Turning to `O=C(O)c1ccccc1Nc1cccc(C(F)(F)F)c1` [Flufenamic acid, reference compound], the “Fibril Formation (%)” value came to 22.3 % fibril formation.

Broadly, the Kd is a measure of binding affinity in units of concentration. Higher therefore signals weaker binding.
